Assay results: the NIST ThermoML archive (doi:10.1021/je800653d)

Experiment: xn = mol fraction of the nth substance listed
Details: 101 kPa, Liquid; for viscosity: Capillary tube (Ostwald / Ubbelohde) method; for speed of sound: Linear variable-path acoustic interferometer

O=S1(=O)CCCC1 [sulfolane] + CCCCOC(C)=O
Details | mass density, 303.15 K [kg/m3] | mass density, 308.15 K [kg/m3] | mass density, 313.15 K [kg/m3] | speed of sound, 303.15 K [m/s] | speed of sound, 308.15 K [m/s] | speed of sound, 313.15 K [m/s] | viscosity, 303.15 K [mPa·s] | viscosity, 308.15 K [mPa·s] | viscosity, 313.15 K [mPa·s]
x1 = 0.0311 | 880.8 | 876.9 | 871.8 | 1182 | 1164 | 1146 | 0.6426 | 0.6016 | 0.5637
x1 = 0.1903 | 932.3 | 928.6 | 923.5 | 1232 | 1212 | 1193 | 0.895 | 0.8248 | 0.7699
x1 = 0.3402 | 985.2 | 980.9 | 975.4 | 1280 | 1261 | 1245 | 1.242 | 1.145 | 1.066
x1 = 0.474 | 1036.1 | 1030.9 | 1025.4 | 1327 | 1316 | 1301 | 1.722 | 1.577 | 1.457
x1 = 0.5789 | 1078.5 | 1072.7 | 1067.1 | 1372 | 1366 | 1354 | 2.3 | 2.082 | 1.903
x1 = 0.6793 | 1120.5 | 1114.4 | 1108.8 | 1424 | 1418 | 1408 | 3.027 | 2.717 | 2.471
x1 = 0.7887 | 1168.2 | 1162.1 | 1156.6 | 1477 | 1468 | 1466 | 4.275 | 3.837 | 3.436
x1 = 0.8876 | 1212.2 | 1207.1 | 1201.5 | 1528 | 1520 | 1510 | 6.2 | 5.499 | 4.902
x1 = 0.9836 | 1254.2 | 1250.1 | 1244.8 | 1577 | 1572 | 1556 | 9.049 | 7.925 | 6.987
x1 = 1 | 1261.8 | 1257 | 1251.6 | 1588 | 1576 | 1558 | 10.03 | 8.795 | 7.837

O=S1(=O)CCCC1 [sulfolane] + CCCOC(C)=O
Details | mass density, 303.15 K [kg/m3] | mass density, 308.15 K [kg/m3] | mass density, 313.15 K [kg/m3] | speed of sound, 303.15 K [m/s] | speed of sound, 308.15 K [m/s] | speed of sound, 313.15 K [m/s] | viscosity, 303.15 K [mPa·s] | viscosity, 308.15 K [mPa·s] | viscosity, 313.15 K [mPa·s]
x1 = 0.0247 | 886.9 | 881.9 | 875.7 | 1154 | 1147 | 1134 | 0.5146 | 0.4827 | 0.4554
x1 = 0.1746 | 941.4 | 935.8 | 929.8 | 1214 | 1203 | 1189 | 0.726 | 0.6764 | 0.6342
x1 = 0.311 | 992.9 | 986.9 | 981.3 | 1266 | 1257 | 1243 | 1.019 | 0.9439 | 0.8781
x1 = 0.4416 | 1043.1 | 1037.9 | 1032.4 | 1322 | 1312 | 1301 | 1.438 | 1.325 | 1.222
x1 = 0.5468 | 1084.6 | 1079.6 | 1074 | 1368 | 1359 | 1352 | 1.922 | 1.762 | 1.617
x1 = 0.6489 | 1124.9 | 1120.1 | 1114.1 | 1419 | 1410 | 1401 | 2.624 | 2.375 | 2.176
x1 = 0.7639 | 1169.5 | 1164.7 | 1159.4 | 1474 | 1469 | 1458 | 3.92 | 3.502 | 3.185
x1 = 0.8733 | 1212.3 | 1207.6 | 1202.2 | 1530 | 1521 | 1510 | 5.863 | 5.217 | 4.662
x1 = 0.9823 | 1255.4 | 1251 | 1245.4 | 1579 | 1573 | 1555 | 9.305 | 8.132 | 7.222
x1 = 1 | 1261.8 | 1257 | 1251.6 | 1588 | 1576 | 1558 | 10.03 | 8.795 | 7.837

O=S1(=O)CCCC1 [sulfolane] + CCOC(C)=O
Details | mass density [kg/m3] | speed of sound [m/s] | viscosity [mPa·s]
298.15 K, x1 = 1 | 1263.9 | 1601 | –
303.15 K, x1 = 0.0218 | 897.8 | 1134 | 0.4006
303.15 K, x1 = 0.1511 | 950.7 | 1196 | 0.5566
303.15 K, x1 = 0.2748 | 1001.1 | 1251 | 0.7832
303.15 K, x1 = 0.4012 | 1052.3 | 1313 | 1.118
303.15 K, x1 = 0.5068 | 1094 | 1366 | 1.5
303.15 K, x1 = 0.598 | 1127.6 | 1408 | 2.054
303.15 K, x1 = 0.7331 | 1175.4 | 1472 | 3.211
303.15 K, x1 = 0.8548 | 1215.5 | 1524 | 5.285
303.15 K, x1 = 0.9799 | 1255.5 | 1579 | 9.205
303.15 K, x1 = 1 | 1261.8 | 1588 | 10.03
308.15 K, x1 = 0.0218 | 893.2 | 1121 | 0.3819
308.15 K, x1 = 0.1511 | 947.1 | 1185 | 0.5275
308.15 K, x1 = 0.2748 | 997.7 | 1241 | 0.73
308.15 K, x1 = 0.4012 | 1048.8 | 1301 | 1.042
308.15 K, x1 = 0.5068 | 1090.3 | 1355 | 1.394
308.15 K, x1 = 0.598 | 1123.9 | 1398 | 1.882
308.15 K, x1 = 0.7331 | 1171.5 | 1465 | 2.923
308.15 K, x1 = 0.8548 | 1211.6 | 1515 | 4.756
308.15 K, x1 = 0.9799 | 1251.9 | 1569 | 8.078
308.15 K, x1 = 1 | 1257 | 1576 | 8.795
313.15 K, x1 = 0.0218 | 885.1 | 1092 | 0.3633
313.15 K, x1 = 0.1511 | 939.5 | 1154 | 0.4961
313.15 K, x1 = 0.2748 | 989.9 | 1216 | 0.6874
313.15 K, x1 = 0.4012 | 1040.5 | 1283 | 0.9781
313.15 K, x1 = 0.5068 | 1082.1 | 1346 | 1.292
313.15 K, x1 = 0.598 | 1116.7 | 1397 | 1.752
313.15 K, x1 = 0.7331 | 1164.7 | 1464 | 2.7
313.15 K, x1 = 0.8548 | 1205.5 | 1513 | 4.281
313.15 K, x1 = 0.9799 | 1245.8 | 1555 | 7.092
313.15 K, x1 = 1 | 1251.6 | 1558 | 7.837
